In ChEMBL document CHEMBL5042500 (J Med Chem, 2022):
pIC50: −log10 of the molar value. In brackets after ≈: the same amount, converted by molar mass. Activity calls are given as the source filed them. The rule behind the calls is not given here.

Assays:
[1] = Metabolic stability in Sprague-Dawley rat liver microsomes assessed as compound degradation in presence of NADPH measured after 20 mins; type: ADME, Microsome; conditions: read-out: Drug degradation
[2] = target: T1, Serine/threonine-protein kinase Sgk1 (Homo sapiens, UniProt O00141); test: Inhibition of recombinant human SGK1 expressed in baculovirus expression system using 5-carboxyfluorescein -RPRAATF-NH2 as substrate preincubated for 30 mins followed by substrate addition in presence of 500 uM ATP and measured after 60 mins by microfluidics assay
T1 sequence (O00141 whole entry): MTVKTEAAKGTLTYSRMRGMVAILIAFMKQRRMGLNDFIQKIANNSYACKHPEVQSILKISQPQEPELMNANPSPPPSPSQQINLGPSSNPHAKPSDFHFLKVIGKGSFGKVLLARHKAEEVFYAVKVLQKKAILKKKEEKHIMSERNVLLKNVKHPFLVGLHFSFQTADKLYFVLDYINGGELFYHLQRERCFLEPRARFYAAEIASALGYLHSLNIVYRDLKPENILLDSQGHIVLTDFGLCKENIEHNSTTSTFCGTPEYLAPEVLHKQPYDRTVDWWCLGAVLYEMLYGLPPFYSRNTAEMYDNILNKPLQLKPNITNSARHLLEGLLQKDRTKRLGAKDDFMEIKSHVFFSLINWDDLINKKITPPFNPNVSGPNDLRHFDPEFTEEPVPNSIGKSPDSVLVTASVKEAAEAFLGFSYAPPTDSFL

[3] = Aqueous solubility of the compound at pH 7.4; type: physicochemical
[4] = Metabolic stability in CD1 mouse liver microsomes assessed as compound degradation in presence of NADPH measured after 20 mins; type: ADME, Microsome; conditions: read-out: Drug degradation
[5] = Permeability in human Caco2 cells at 20 uM incubated for 120 mins by ESI-MS/MS analysis; type: ADME, cell-based; conditions: Caco-2, read-out: permeability
CYP3A4 = CYP3A4 (Homo sapiens, UniProt P08684); test: Inhibition of CYP3A4 in human liver microsomes by measuring maximum efficacy; type: ADME
[6] = Distribution coefficient, logD of compound at pH 7.4 by chromatographic analysis; type: physicochemical; conditions: octanol/water
[7] = Metabolic stability in human liver microsomes assessed as compound degradation in presence of NADPH measured after 20 mins; type: ADME, Microsome; conditions: read-out: Drug degradation
[8] = target: T1, Serine/threonine-protein kinase Sgk1; test: Inhibition of recombinant human SGK1 expressed in baculovirus expression system using 5-carboxyfluorescein -RPRAATF-NH2 as substrate preincubated for 30 mins followed by substrate addition in presence of 10 uM ATP and measured after 60 mins by microfluidics assay
Salmonella typhimurium [9] = test: Mutagenicity in Salmonella typhimurium […] by ames test; type: toxicity, organism-based; conditions: salmonella enterica subsp. enterica serovar typhimurium
[10] = Chemical stability of the compound at pH 7.4 measured after 24 hrs; type: physicochemical; conditions: buffer, read-out: Stability
hERG (KCNH2) [11] = target: T2, hERG (KCNH2) (Homo sapiens, UniProt Q12809); test: Inhibition of human ERG at 10 uM; type: toxicity
Salmonella typhimurium [12] = test: Mutagenicity in Salmonella typhimurium […] in presence of S9 fraction by ames test; type: toxicity, organism-based; conditions: salmonella enterica subsp. enterica serovar typhimurium
Cytochrome P450 3A4 [13] = target: T3, Cytochrome P450 3A4 (Homo sapiens, UniProt P08684); test: Inhibition of CYP3A4 in human liver microsomes using testosterone as substrate incubated for 30 mins by LC-MS/MS analysis; type: ADME
[14] = Solubility of the compound in FeSSIF at pH 5.0; type: physicochemical
hERG (KCNH2) [15] = target: T2, hERG (KCNH2); test: Inhibition of human ERG at 1 uM relative to control; type: toxicity
[16] = Intrinsic clearance in human hepatocytes assessed per 10^-6 cells; type: ADME, cell-based, Hepatocyte
[17] = Effect on chondrocyte hypertrophic differentiation mouse ATDC-5 cells assessed as inhibition of […] gene expression incubated for 2 weeks followed by compound added and every 3 days medium is changed measured after 2 weeks by RT-qPCR analysis; type: functional, cell-based
Cytochrome P450 3A4 [18] = target: T3, Cytochrome P450 3A4; test: Inhibition of CYP3A4 in human liver microsomes using midazolam as substrate incubated for 10 mins by LC-MS/MS analysis; type: ADME
[19] = Tmax in Lewis rat plasma at 30 mg/kg, po measured after 8 hrs; type: ADME, organism-based
[20] = Cmax in Lewis rat plasma at 30 mg/kg, po measured after 8 hrs; type: ADME, organism-based; parameters: route oral, time 8 hrs, dose 30 mg/kg
[21] = Inhibition of rat SGK1 in presence 500 uM presence of ATP
[22] = target: T4, Serine/threonine-protein kinase Sgk1 (Mus musculus, UniProt Q9WVC6); test: Inhibition of mouse SGK1 in presence 500 uM presence of ATP
T4 sequence (Q9WVC6 whole entry): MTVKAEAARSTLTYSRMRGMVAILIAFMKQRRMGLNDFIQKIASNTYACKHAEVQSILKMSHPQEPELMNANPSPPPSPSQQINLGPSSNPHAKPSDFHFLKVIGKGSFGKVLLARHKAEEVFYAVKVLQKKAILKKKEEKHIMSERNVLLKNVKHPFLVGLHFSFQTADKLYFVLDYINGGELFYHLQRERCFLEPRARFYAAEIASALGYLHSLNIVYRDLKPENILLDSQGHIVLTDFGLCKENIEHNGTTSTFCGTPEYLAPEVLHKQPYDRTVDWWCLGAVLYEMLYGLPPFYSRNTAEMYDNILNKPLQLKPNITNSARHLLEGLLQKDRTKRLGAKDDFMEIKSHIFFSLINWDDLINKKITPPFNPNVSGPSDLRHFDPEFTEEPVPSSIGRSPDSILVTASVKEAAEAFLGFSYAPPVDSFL

[23] = target: T5, Serine/threonine-protein kinase Sgk3 (Homo sapiens, UniProt Q96BR1); test: Inhibition of human SGK3 in presence 500 uM presence of ATP
T5 sequence (Q96BR1 whole entry): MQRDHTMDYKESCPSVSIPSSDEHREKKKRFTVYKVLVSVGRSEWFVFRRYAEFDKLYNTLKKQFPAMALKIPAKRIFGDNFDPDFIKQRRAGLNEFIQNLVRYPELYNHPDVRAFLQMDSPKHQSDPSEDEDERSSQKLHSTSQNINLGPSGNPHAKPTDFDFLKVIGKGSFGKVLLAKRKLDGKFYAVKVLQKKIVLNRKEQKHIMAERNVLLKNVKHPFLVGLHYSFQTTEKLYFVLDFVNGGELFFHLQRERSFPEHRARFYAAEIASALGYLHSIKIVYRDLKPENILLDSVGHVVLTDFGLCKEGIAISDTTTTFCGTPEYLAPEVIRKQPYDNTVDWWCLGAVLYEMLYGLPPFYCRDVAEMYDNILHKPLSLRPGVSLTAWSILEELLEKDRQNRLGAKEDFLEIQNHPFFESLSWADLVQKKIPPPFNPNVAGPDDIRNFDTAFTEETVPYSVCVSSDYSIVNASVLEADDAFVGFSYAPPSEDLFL

[24] = Cmax in Sprague-Dawley rat plasma at 30 mg/kg, po; type: ADME, organism-based; parameters: route oral, dose 30 mg/kg
Femur = test: Induction of chondrogenesis in femoral head cartilage isolated from C57BL/6 mouse model of osteoarthritis assessed as reduction in intensity of collagen type x staining incubated for 2 weeks in hypertrophic condition and twice for week medium is changed by immunohistochemical staining based analysis; type: functional, tissue-based
[25] = target: T6, Serine/threonine-protein kinase Sgk2 (Homo sapiens, UniProt Q9HBY8); test: Inhibition of human SGK2 in presence 500 uM presence of ATP
T6 sequence (Q9HBY8 whole entry): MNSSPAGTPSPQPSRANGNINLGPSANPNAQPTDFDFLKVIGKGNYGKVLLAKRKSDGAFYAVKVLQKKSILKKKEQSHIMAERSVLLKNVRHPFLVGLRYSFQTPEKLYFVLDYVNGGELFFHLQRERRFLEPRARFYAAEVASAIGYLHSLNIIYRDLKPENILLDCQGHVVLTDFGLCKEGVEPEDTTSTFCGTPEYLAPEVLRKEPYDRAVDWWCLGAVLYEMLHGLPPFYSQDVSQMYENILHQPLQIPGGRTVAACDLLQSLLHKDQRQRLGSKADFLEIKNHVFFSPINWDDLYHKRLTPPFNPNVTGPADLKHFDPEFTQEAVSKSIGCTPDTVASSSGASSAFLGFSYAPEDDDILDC

[26] = AUC (0 to 24 hrs) in Lewis rat plasma at 30 mg/kg, po measured after 8 hrs; type: ADME, organism-based; parameters: route oral, dose 30 mg/kg, time 8 hrs
[27] = AUC (0 to 24 hrs) in Lewis rat femoral head cartilage at 30 mg/kg, po measured after 8 hrs; type: ADME, organism-based, Femur; parameters: route oral, dose 30 mg/kg, time 8 hrs
[28] = Tmax in Lewis rat femoral head cartilage at 30 mg/kg, po measured after 8 hrs; type: ADME, organism-based, Femur
[29] = Cmax in Lewis rat femoral head cartilage at 30 mg/kg, po measured after 8 hrs; type: ADME, organism-based, Femur; parameters: route oral, time 8 hrs, dose 30 mg/kg
[30] = Tmax in Sprague-Dawley rat plasma at 30 mg/kg, po; type: ADME, organism-based
[31] = Half life in Sprague-Dawley rat plasma at 30 mg/kg, po; type: ADME, organism-based
[32] = AUC (0 to 24 hrs) in Sprague-Dawley rat plasma at 30 mg/kg, po; type: ADME, organism-based; parameters: time < 24 hr, route oral, dose 30 mg/kg
[33] = Ratio of AUC(0 to 24 hrs) in femoral head to plasma in rat measured after 2 hrs; type: ADME, Bone/Plasma; conditions: read-out: Selectivity ratio

T2 sequence (Q12809 whole entry): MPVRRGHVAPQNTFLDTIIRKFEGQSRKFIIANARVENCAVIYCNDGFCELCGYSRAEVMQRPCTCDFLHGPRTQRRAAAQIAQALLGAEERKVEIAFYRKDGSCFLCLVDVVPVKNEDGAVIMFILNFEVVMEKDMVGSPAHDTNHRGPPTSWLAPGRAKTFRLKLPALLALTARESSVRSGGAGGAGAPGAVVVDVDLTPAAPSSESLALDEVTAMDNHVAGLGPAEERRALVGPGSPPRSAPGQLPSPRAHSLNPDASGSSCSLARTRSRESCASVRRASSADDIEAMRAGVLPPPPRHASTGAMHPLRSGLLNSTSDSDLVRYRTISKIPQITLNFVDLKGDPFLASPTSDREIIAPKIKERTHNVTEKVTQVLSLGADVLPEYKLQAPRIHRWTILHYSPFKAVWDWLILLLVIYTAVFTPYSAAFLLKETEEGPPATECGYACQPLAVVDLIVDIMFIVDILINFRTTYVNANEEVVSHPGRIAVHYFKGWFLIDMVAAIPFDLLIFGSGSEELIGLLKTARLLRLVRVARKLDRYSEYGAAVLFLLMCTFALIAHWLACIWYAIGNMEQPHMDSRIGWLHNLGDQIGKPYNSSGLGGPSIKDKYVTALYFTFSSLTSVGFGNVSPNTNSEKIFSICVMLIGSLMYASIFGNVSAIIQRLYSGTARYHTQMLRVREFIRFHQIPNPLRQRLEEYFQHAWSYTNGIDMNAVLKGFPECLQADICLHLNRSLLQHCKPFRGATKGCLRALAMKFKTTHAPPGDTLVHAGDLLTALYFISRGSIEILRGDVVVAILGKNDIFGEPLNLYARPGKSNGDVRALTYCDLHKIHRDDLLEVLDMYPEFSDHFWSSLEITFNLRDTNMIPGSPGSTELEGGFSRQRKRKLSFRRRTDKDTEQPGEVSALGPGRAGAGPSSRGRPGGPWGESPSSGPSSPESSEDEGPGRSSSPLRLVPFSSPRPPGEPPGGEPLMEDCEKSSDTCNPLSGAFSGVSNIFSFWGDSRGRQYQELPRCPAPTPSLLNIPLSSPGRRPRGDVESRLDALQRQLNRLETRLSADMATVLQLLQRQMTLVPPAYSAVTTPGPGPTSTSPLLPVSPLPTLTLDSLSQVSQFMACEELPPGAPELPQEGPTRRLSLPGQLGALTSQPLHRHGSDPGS
T3 sequence (P08684 whole entry): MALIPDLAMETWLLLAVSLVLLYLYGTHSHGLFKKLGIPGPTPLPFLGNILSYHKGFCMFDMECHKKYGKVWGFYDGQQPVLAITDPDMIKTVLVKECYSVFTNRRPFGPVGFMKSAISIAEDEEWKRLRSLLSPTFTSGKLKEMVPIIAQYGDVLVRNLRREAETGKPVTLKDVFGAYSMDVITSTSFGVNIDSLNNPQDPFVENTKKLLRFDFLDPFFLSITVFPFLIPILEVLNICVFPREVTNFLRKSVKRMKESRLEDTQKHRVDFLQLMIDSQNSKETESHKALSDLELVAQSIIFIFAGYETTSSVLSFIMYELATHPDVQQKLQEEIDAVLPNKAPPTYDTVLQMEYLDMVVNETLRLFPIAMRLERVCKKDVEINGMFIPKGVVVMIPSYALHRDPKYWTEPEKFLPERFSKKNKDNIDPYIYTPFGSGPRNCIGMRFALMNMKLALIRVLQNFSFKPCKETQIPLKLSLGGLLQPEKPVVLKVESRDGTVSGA
Chain of CYP3A4 (P08684 whole entry): as above

metabolised at 20 min [1]	pIC50 [2]	solubility [3]	metabolised at 20 min [4]	Papp at 2 h, 20 µM [5]	Emax (CYP3A4)	chromatographic logD [6]	metabolised at 20 min [7]	pIC50 [8]	remaining at 24 h [10]	pIC50 (Cytochrome P450 3A4 [13])	CLH [16]	pIC50 (Cytochrome P450 3A4 [18])	Compound	inhibition at 10 µM (hERG (KCNH2) [11])	Activity (Salmonella typhimurium [12])	inhibition at 1 µM (hERG (KCNH2) [15])	pIC50 [17]	further results
4%	8.40	< 1 µg/mL	11%	5 ×10⁻⁶ cm/s	3%	3.4	19%	8.70	100%	< 4.52	0.02 mL/h	< 4.52	Cc1n[nH]c2nc(-c3ccc(NS(=O)(=O)c4cc(Cl)ccc4F)cc3)nc(OC3CCN(C4CC4)CC3)c12	5%	Non-Toxic	24%	8.15	Activity (Salmonella typhimurium [9]): Non-Toxic; solubility [14]: 17 µg/mL (≈ 30.5 µM)
2%	8.05	58 µg/mL (≈ 136 µM)	3%	1.5 ×10⁻⁶ cm/s	17%	1.13	3%	8.52	100%	< 4.52	0.005 mL/h	< 4.52	N#Cc1ccc(Cl)cc1S(=O)(=O)Nc1ccc(-c2ncc3c(N)n[nH]c3n2)cc1	11%	Non-Toxic	0%	6.26	Tmax [19]: 4 h; Cmax [20]: 2970 ng/mL; pIC50 [21]: 6.52; pIC50 [22]: 6.53; pIC50 [23]: 6.68; Cmax [24]: 10600 ng/mL; Activity (Femur): Active; pIC50 [25]: 7.68; AUC(0-t) at 8 h [26]: 33000 ng·h/mL; AUC(0-t) at 8 h [27]: 5200 ng·h/mL; Tmax [28]: 2 h; Cmax [29]: 890 ng/mL; Tmax [30]: 4 h; half-life [31]: 2.8 h; AUC(0-t) at 24 h [32]: 110000 ng·h/mL; Kp at 2 h [33]: 0.047
